# Entries after “also recorded” stand apart in the source; their conditions may differ.
# Assays:
# OVCAR8 cells = assay: Colony formation (clonogenic) assay in OVCAR8 cells; type: cell-based
# [1] = test system: Luciferase-tagged OVCAR8 cells; assay: Viability of luciferase-tagged OVCAR8 cells in combination with radiation or paclitaxel; type: cell-based
# Description: FIG. 5, panels A-E: illustrates the sensitizing effect of SU093 on the viability of luciferase-tagged OVCAR8 cells in combination with radiation and chemotherapy treatment. FIG. 5, panel A graphs cells that were pre-treated with 0, 0.5 and 1 nM SU093 for 24 h followed by 0, 5 & 10 Gy radiation treatment and incubated for 96 h. FIG. 5, panel B illustrates cell cycle analysis of SU093 and radiation combination treatment in OVCAR8. FIG. 5, panel C illustrates the effect of SU093 on OVCAR8 cells in hypoxic condition (0.5% O2) FIG. 5, panel D graphs hypoxic cells that were pre-treated with SU093 for 24 h followed by 5 and 10 Gy radiation.
# It has been previously established that GBP1 expression has a definitive role in the resistance towards radiation therapy and taxane-based chemotherapy. The GBP1 inhibitor SU093 was tested in combination with radiation and paclitaxel (a well known taxane-based chemotherapeutic drug) for its potential in overcoming radiation therapy and taxane resistance. […] A cell cycle analysis experiment for radiation was performed with SU093 and combination treatment (FIG. 5, panel B). […] One of the mechanisms through which a drug can sensitize the effect of radiation is its ability to block G2/M phase of the cell cycle (Leonard, C. E.; Chan, D. C.; Chou, T. C.; Kumar, R.; Bunn, P. A., Paclitaxel enhances in vitro radiosensitivity of squamous carcinoma cell lines of the head and neck. Cancer Research 1996, 56 (22), 5198-5204). G2/M is the most radiosensitive phase in the cell cycle and arresting the cell population in this phase would likely sensitize them to the next cycle of radiation and enhance cell death (Pawlik, T. M.; Keyomarsi, K., Role of cell cycle in mediating sensitivity to radiotherapy. International Journal of Radiation Oncology Biology Physics 2004, 59 (4), 928-942; Nambiar, D. K.; Rajamani, P.; Deep, G.; Jain, A. K.; Agarwal, R.; Singh, R. P., Silibinin Preferentially Radiosensitizes Prostate Cancer by Inhibiting DNA Repair Signaling. Molecular Cancer Therapeutics 2015, 14 (12), 2722-2734). […] Bearing in mind that solid tumors create a hypoxic microenvironment, these findings provided a very compelling case for the clinical application of the subject GBP1 inhibitors as a treatment for re-sensitizing radiation therapy in refractory cancers.
# The cytotoxic effect of SU093 and paclitaxel combination treatment was also studied (FIG. 5, panel E).
# [2] = In vivo pharmacokinetics, plasma concentration by LCMS; conditions: C57BL/6, mouse, C57BL6 female mice, single 10 mg/kg IP
# Description: FIG. 7, panel A illustrates in vivo PK studies, C57BL/6 mice. Drug concentration in plasma was quantified at different time points using LCMS after a single IP injection of SU093. FIG. 7, panel B illustrates the drug concentration in harvested ovaries and liver of C57BL/6 mice after 14 days of administration with SU093 (100 mg/kg) by daily IP injection.
# To investigate the pharmacokinetics and toxicity of the subject GBP1 inhibitors, in vivo pharmacokinetic studies with SU093 were conducted and the drug concentration in mice plasma at different time points after injection was determined (e.g. after 5, 10, 30, 60, 120, 360 minutes after injection). Non-tumor-bearing C57BL6 female mice (n=3/group of each time point) were used for these studies and the drug was administered in a single dose of 10 mg/kg intrepertoneally (IP) at different time points. After each time point 150 microliters of blood was withdraw from retro orbital sinus from the respective group of anesthetized (isoflurane) mice. Plasma was separated from each blood sample and mixed with an equal volume of acetonitrile (w/v). Precipitated protein was separated by centrifugation at 12,000 RPM for 10 min at 4° C. Clear supernatant was analyzed for quantification of SU093 using liquid chromatography mass spectroscopy (LCMS).
# GBP1 = assay: cell-based reporter assay, OVCAR-8 stably transfected with GBP-1-luciferase; conditions: OVCAR-8 GBP-1-luciferase
# From the text: Exemplary compounds (1)-(17) and previously identified compound SU093 (Andreoli, M., Persico, M.; Kumar, A.; Orteca, N.; Kumar, V.; Pepe, A.; Mahalingam, S.; Alegria, A. E.; Petrella, L.; Sevciunaite, L.; Camperchioli, A.; Mariani, M.; Di Dato, A.; Novellino, E.; Scambia, G., Malhotra, S. V.; Ferlini, C.; Fattorusso, C., Identification of the First Inhibitor of the GBP1:PIM1 Interaction. Implications for the Development of a New Class of Anticancer Agents against Paclitaxel Resistant Cancer Cells. Journal of Medicinal Chemistry 2014, 57 (19), 7916-7932) were tested for GBP1 inhibition using a cell-based reporter assay in ovarian cancer cell line OVCAR-8 stably transfected with GBP-1-luciferase. Tables 1 and 2 below outlines the percentage of GBP1 expression in OVCAR-8 cells for each of the 17 compounds tested.
# SCC-90 tumor xenograft = assay: Head and neck SCC-90 tumor xenograft in nude mice; type: in vivo; conditions: SCC-90, nude mice
# Description: An immunodeficient nude mice model was also used to study the in vivo potential of SU093 and SU056 for head and neck cancer. Nude mice (n=3/group) were subcutaneously injected in the right flank with 5×10^6 SCC-90 cells mixed with matrigel and observed regularly until the tumor size reached about 200 mm^3. The treatment regime with drugs including dose, formulation and route of delivery was similar to ovarian cancer study discussed above. Doses of SU093 and SU056 were administered daily until 35 days and mice were sacrificed thereafter. […] At the end of 35 days, calculated tumor volume/mouse was 860.33±21.78 mm^3, 694.67±14.64 mm^3, and 435.00±10.81 mm^3 for control, SU093 and SU056 treatment groups, respectively. This equates to a 20% and 50% reduction in tumor volume for SU093 and SU056 treatment groups, respectively. A decrease in tumor weight of about 21% (P value not significant) and 54% (P<0.002) was also observed for the SU093 and SU56 treatment groups, respectively.
structure (smiles),measurement,setting,value
COc1ccc2c(c1)N(CCO)C1=C(C(=O)OC1)C2c1ccccc1 (stereo not shown) [SU093],colony formation / clonogenic potential,OVCAR8 cells,dose-dependent inhibition of clonogenic potential; also recorded: dose-dependent inhibition of colony formation
same,"cell viability, pretreatment with SU093 then radiation",[1]; 5 and 10 Gy radiation,significant synergistic effect
same,cytotoxicity in hypoxic conditions,"[1]; OVCAR8, hypoxic (0.5% O2)",intrinsic cytotoxic effects
same,cytotoxic effect of SU093 and paclitaxel combination,"[1]; SU093 0.5 nM 24 h then paclitaxel 1, 5, 10 nM",synergistic cytotoxic effect; also recorded: enhanced cytotoxic effect as compared to paclitaxel alone
same,"cell death, co-treatment with radiotherapy in hypoxia","[1]; hypoxic OVCAR8, SU093 plus 5 and 10 Gy",significantly potentiated cell death
same,Cmax,[2],1600 ng/mL
same,Tmax,[2],5 min
same,half-life,[2],60 min
same,% GBP1 expression OVCAR-8 @5 nM,GBP1; 5 nM,60.3%
same,% GBP1 expression OVCAR-8 @10 nM,GBP1; 10 nM,51.0%
same,tumor volume/mouse,"SCC-90 tumor xenograft; 20 mg/kg IP daily, end of 35 days",694.67±14.64 mm^3
same,decrease in tumor weight,"SCC-90 tumor xenograft; 35 days, vs control",about 21%
same,reduction in tumor volume,"SCC-90 tumor xenograft; 35 days, vs control",20%
